Results on 9 compounds are retold here after patent US20180312539A1, “METHODS FOR PREPARING HIGH THROUGHPUT PEPTIDOMIMETICS, ORALLY BIOAVAILABLE DRUGS AND COMPOSITIONS CONTAINING SAME” (University of Southern California, priority 2011, published 2018).

The conditions of data set [1]: mouse, in vivo, iv, 10 mg/kg.
Procedure: (§1) 200 μL of peptide was administered by IV injection into the tail vein of C57BL6 mice at a dose of 10 mg/kg. 50 μL blood samples were taken at various time points by orbital bleeding using heparin coated capillary tubes and isoflurane for anesthesia. Samples are diluted to 600 μLin TE buffer (pH=8.0) then filtered by centrifugation through a 3000 MWCO filter. The flowthrough was analyzed on a Shimadzu RF-5301 PC fluorometer. Time points were integrated and analyzed using Prism 5.0 software.
(§2) To that end mice were administered peptide conjugated to fluorescein by IV injection into the tail vein. Blood samples were taken by orbital bleeding. Blood peptide concentration was determined by comparing fluorescence to a 15 minute time point.
On the set-up of data set [2]: species or system C57BL6 mice. Particulars: mouse, in vivo, 10 mg/kg. How it is done: The following peptides were synthesized for oral administration: […](FAM) (SEQ ID NO: 14), […](FAM)DK(Palmitoleic acid) (SEQ ID NO: 15), and […](FAM) (SEQ ID NO: 16), wherein FAM is a lysine derivative containing fluorescein. All peptides were cyclized from the side chain to lysine to the N-terminus as previously described. Anesthetized C57BL6 mice had peptide administered at a dose of 10 mg/kg by oral gavage. After administration, mice were removed from isoflurane. At various time points, blood samples were taken by orbital bleeding as previously described. Peaks were normalized to a 15 minute time point from mice that had peptide administered by IV injection.
The following peptides were synthesized for oral administration: […](FAM) (SEQ ID NO: 14), […](FAM) (SEQ ID NO: 16), […](FAM)DK(biotin) (SEQ ID NO: 38), and […](FAM)DK(Palmitoleic acid) (SEQ ID NO: 15). All peptides were cyclized from the side chain to lysine to the N-terminus as previously described in Millward, S. W. et al. (2007) ACS Chem. Biol. 2:625. Anesthetized C57BL6 mice had peptide administered at a dose of 10 mgs/Kg by oral gavage. After administration, mice were removed from isoflurane. At various time points, blood samples were taken by orbital bleeding as previously described. Peaks were normalized to a 20 minute time point from mice that had peptide administered by IV injection. Area under the curve was analyzed by Graphpad 5.0.
In addition to accessing intracellular targets in cell culture, deriving a simple modification that would facilitate oral bioavailability of peptidic ligands would be greatly beneficial for therapeutic development. Intestinal absorption of both fatty acids and biotin is nearly 100% efficient. Zempleni, J. and Mock, D. M. (1999) The American Journal of Clinical Nutrition 69:504. […] Applicants synthesized a protease resistant peptide with the sequence […]-mod (designated SUPR peptide) (SEQ ID NO: 50), where A is N-methyl alanine, the peptide is cyclized from lysine to the N-terminus, and K(mod) is lysine with a modified sidechain including either biotin or palmitoleic acid. Palmitoleic acid is a monounsaturated fatty acid chosen for its ability to bind human serum albumin, and its low melting point allowing for more favorable solubility of conjugated peptides as compared to […] fatty acid conjugates. This peptide was administered to mice at a dose of 10 mg/kg by oral gavage. At various time points, blood was taken from the mice by orbital bleeding. After processing, fluorescence was quantified and compared to the maximum signal obtained by IV injection of peptide at the same dose.

The conditions of data set [3]: mouse, iv.
Procedure: as §1, §2
A further data set concerns SKBR-3 cells. In kind it is cell-based, human. The protocol:
Proliferation was measured by standard BrdU cell proliferation assay (Calbiochem). Cell lines were plated in 96-well plates (20,000 cells/well) in D-10 media with indicated amount of peptide with 2% DMSO, and incubated overnight. The BrdU compound was given to the cells for 2 hrs. Following the manufacturer's protocol, samples were analyzed by UV absorbance measurements at 450 nm. Peptide signal was normalized to cells incubated with 2% DMSO but no peptide. IC50 data was generated by fitting the data to a drug response equation (Log(drug) vs. Response, GraphPad Prism 5.0).
The peptides were then screened for function using a standard in vitro assays used to test efficacy of Her-2 targeting molecules. The assay involved analyzing a molecule's ability to inhibit proliferation in cell culture. A widely used kit is the BrdU cell proliferation assay. In this assay, cells are incubated with the molecule of interest before having their media supplemented with a bromodeoxyuridine. Bromodeoxyuridine is incorporated into the DNA of proliferating cells. DNA with this modified base is recognized with an antibody, and quantitated by ELISA. Applicants tested the peptides and compared them with their parental molecules.

The conditions of data set [4]: cited from earlier work; for oral bioavailability: as known in the field.
Another data set can be described thus: b. The text has this:
Table printed on a drawing sheet, FIGURES 5A and 5B
FIG. 5A is Vmax for chymotrypsin digestion of cycGIBP(•), linSUPR(♦), and cycSUPR(▪). A close up of linSUPR and cycSUPR is embedded in the Figure to show the data in more detail. FIG. 5B is a Table showing values for Km and Vmax as derived by processing the data through Graphpad Prism 5.0. Both Km and Vmax are highly optimized for protease resistance in cycSUPR peptide when compared to cycGIBP.
First reader's note: Km and Vmax are kinetic parameters of chymotrypsin digestion of the peptides (protease stability); the sheet prints no unit for Km.

The nature of the next data set: Human serum digests. In kind it is in vitro ADME. Particulars: reconstituted human serum, 37° C. The protocol: Delipidated/lyophilized human serum was purchased from Thermo Scientific and reconstituted as per manufacturer's instructions. 250 nmoles of peptide in 50 μLs of sodium phosphate buffer (pH=8.0) with 10% DMSO was added to 1 mL of reconstituted serum and incubated at 37° C. 100 μL aliquots were taken at various time points and quenched in 300 μLs of acetonitrile. Samples were spun down and decanted to remove precipitate followed by dilution in water to 1.5 mLs. Samples were then analyzed by HPLC as described in the protease resistance experiment.
Delipidated/lyophilized human serum was purchased from Thermo Scientific and reconstituted as per manufacturer's instructions. 250 nmoles of peptide in 50 μL of sodium phosphate buffer (pH=8.0) with 10% DMSO was added to 1 mL of reconstituted serum and incubated at 37° C. 100 μL aliquots were taken at various time points and quenched in 300 μL of acetonitrile. Samples were spun down and decanted to remove precipitate followed by dilution in water to 1.5 mLs.
The human serum and human microsome stability of the Gαi1 binding SUPR peptide ([…] (SEQ ID NO: 7)) were compared to the peptides ability to bind to Her-2. Beginning with the human serum analysis, peptides were digested with 95% human serum at 37° C. Analysis was performed by HPLC. […] Therefore, intact peptide is only completely unmodified peptide. Digestions of SUPR, HMP, and PMP are show have lives very similar to SUPR. Digestion of PMP2 is in progress. Without being bound by theory, Applicants theorize that the fitting for HMP may have produced an artificially low half-life.

In the next data set the test system is blood sugar. As to the kind of experiment: Blood glucose response to insulin. In kind it is in vivo, C57BL6 mice. Particulars: oral gavage, 7 nmol/kg. How it is done:
Experimental procedure followed previously published protocols with slight modification, see e.g., (McKern, N. M., et al. (2006) Nature 443:218; Schïffer, L., et al (2003) PNAS 100:4435). Briefly, C57BL6 mice (4 in each group) fasted overnight and were anesthetized using isoflurane prior to taking blood samples by orbital bleeding. Mice were dosed with insulin or biotinylated insulin at a concentration of 3.5 nmol/kg by IV injection into the tail vein. […] In all cases, insulin was in 150 μL of 50 mM sodium phosphate buffer (pH=8.0). Blood was analyzed on a standard Clarity Plus blood glucose meter (VWR). Readings were normalized to a T=0 blood sugar measurement, and analyzed on Graphpad 5.0.
Reacting human insulin with biotin-NHS produced three distinct products that can be separated by HPLC. […] Calceti, P. et al. (2004) European Journal of Pharmaceutical Sciences 22:315; and Tuesca, A., et al. (2009) Pharmaceutical Research 26:727.
Biotinylated insulin and insulin were fed to mice by oral gavage. […] The longer duration of response is likely due to the kinetics of absorption by the intestinal mucosa.

Like-named read-outs stand apart in the source and are kept apart here. *1 amine or outer side, *2 acyl side, *3 side chain or, on linkers, in order; H or OH if unused. Where a SMILES comes first, the peptide text is derived from it. Bridges are numbered along the chain shown (N, C = ends). [ ]: non-standard residue; d: D form. The star is where a group is joined. 5FAM = O=C1OC2(c3ccc(O)cc3Oc3cc(O)ccc32)c2ccc(C(=O)*)cc21; Palmitoleoyl = CCCCCC/C=C\CCCCCCCC(=O)*; Glutaryl = O=C(CCCC(=O)[*:2])[*:1]; NMeNva = CCC[C@H](NC)C(=O)O; NMeA = CN[C@@H](C)C(=O)O

`CCCCCC/C=C\CCCCCCCC(=O)NCCCC[C@@H](NC(=O)[C@H](CCCCNC(=O)c1ccc2c(c1)C(=O)OC21c2ccc(O)cc2Oc2cc(O)ccc21)NC(=O)[C@@H]1CCCCNC(=O)CCCC(=O)N[C@@H](CCSC)C(=O)N[C@@H](Cc2ccccc2)C(=O)N[C@@H](Cc2ccc(O)cc2)C(=O)N(C)[C@@H](C)C(=O)N[C@@H](Cc2ccc(O)cc2)C(=O)N[C@@H](CCC(=O)O)C(=O)N[C@@H](Cc2ccc(O)cc2)C(=O)N(C)[C@@H](C)C(=O)N[C@@H](CCC(N)=O)C(=O)N[C@@H](Cc2c[nH]c3ccccc23)C(=O)N[C@@H](CO)C(=O)N1)C(=O)O` [FA-cycSUPR] (MFY[NMeA]YEY[NMeA]QWSKK(5FAM)[dK](Palmitoleoyl)-OH; linker N-12 via Glutaryl) yielded a half-life in data set [1] of 1100 min. In addition, the bioavailability in data set [2] stood at 9.8%. The oral uptake efficiency in data set [2] (po) worked out at 9.4%. In addition, in data set [3], the “fold increase in in vivo half-life over cycGIBP” value is on record as 354 fold.

With `CCC[C@H]1C(=O)N(C)[C@@H](CCC)C(=O)N[C@@H](CC(C)C)C(=O)N[C@@H](Cc2ccc(O)cc2)C(=O)N[C@@H](CC(=O)O)C(=O)N[C@@H](CC(=O)O)C(=O)N[C@H](C(N)=O)CCCCNC(=O)CCCC(=O)N[C@@H](CCSC)C(=O)N[C@@H](C(C)C)C(=O)N[C@@H](CS)C(=O)N1C` [Peptide D] (MVC[NMeNva][NMeNva]LYDDK-NH2; linker N-10 via Glutaryl (inferred); C-terminus assumed), the “fold improvement with respect to parental molecule” value with SKBR-3 cells (EC50/IC50 ratio, peptide 1 vs HRAP, peptide D vs ANHP) is given as about 110 fold. In addition, in the data set with SKBR-3 cells (concentrations significantly above the EC50), the “proliferation relative to untreated cells (maximal effect)” value was found to be 56%.

For `O=C(O)CCCC[C@@H]1SC[C@@H]2NC(=O)N[C@@H]21` [biotin], the intestinal absorption efficiency in data set [4] (Zempleni and Mock (1999)) was about 100%. The oral bioavailability in data set [4] is reported as about 100%.

In data set [1], `CC[C@H](C)[C@@H]1NC(=O)[C@H](CCSC)NC(=O)CCCC(=O)NCCCC[C@@H](C(N)=O)NC(=O)[C@H]([C@@H](C)O)NC(=O)CNC(=O)[C@H](C)NC(=O)[C@H](C(C)C)NC(=O)[C@H](Cc2ccccc2)NC(=O)[C@H](CCC(=O)O)NC(=O)[C@H](Cc2ccc(O)cc2)NC(=O)[C@H](Cc2c[nH]c3ccccc23)NC(=O)[C@H]([C@@H](C)O)NC1=O` [cycGIBP, reference compound] (MITWYEFVAGTK-NH2; linker N-12 via Glutaryl) had a half-life of 3.1 min.

On to `CC[C@H](C)[C@@H]1NC(=O)[C@H](CCSC)NC(=O)CCCC(=O)NCCCC[C@@H](C(N)=O)NC(=O)[C@H]([C@@H](C)O)NC(=O)CNC(=O)[C@H](C)NC(=O)[C@H](C(C)C)NC(=O)[C@H](Cc2ccccc2)NC(=O)[C@H](CCC(=O)O)NC(=O)[C@H](Cc2ccc(O)cc2)NC(=O)[C@H](Cc2c[nH]c3ccccc23)NC(=O)[C@H]([C@@H](C)O)NC1=O` [cycGIBP] (MITWYEFVAGTK-NH2; linker N-12 via Glutaryl), for which, in the data set “b”, the “Vmax” value came to 37 nmol/s.

`CSCC[C@H](N)C(=O)N[C@@H](Cc1ccccc1)C(=O)N[C@@H](Cc1ccc(O)cc1)C(=O)N(C)[C@@H](C)C(=O)N[C@@H](Cc1ccc(O)cc1)C(=O)N[C@@H](CCC(=O)O)C(=O)N[C@@H](Cc1ccc(O)cc1)C(=O)N(C)[C@@H](C)C(=O)N[C@@H](CCC(N)=O)C(=O)N[C@@H](Cc1c[nH]c2ccccc12)C(=O)N[C@@H](CO)C(=O)N[C@@H](CCCCN)C(N)=O` [linSUPR] had a half-life in the data set “Human serum digests” of 16.2 min.

Regarding `CCCCCC/C=C\CCCCCCCC(=O)O` [palmitoleic acid], in data set [4], the oral bioavailability was about 100%.

For the compound “biotinylated insulin: human insulin singly biotinylated on the N-terminus of the B-chain”, the “effect on blood sugar” value with blood sugar is “produced a typical insulin response”.

Take “insulin: unmodified human insulin [reference compound]”: the “effect on blood sugar” value with blood sugar is “no effect on blood sugar”.

One may read the half-life as how long it takes for the measured level to halve. The low end stands for fast loss, the high end for slow loss. For orientation: bioavailability means the share of a dose that reaches the circulation, judged against a reference dose that is usually intravenous. Broadly, the Vmax is the rate approached at saturating substrate.
